Results as given in patent publication US11932624B2, “MDM2 degraders and uses thereof” (Kymera Therapeutics, Inc., priority 2020, dated 2024).

System: RS411 cells
Experiment: Cell Viability CTG Assay (CellTiter Glo) in RS411 cells
Type: cell-based
Settings: Homo sapiens
Method: Example 23. Cell Viability CTG Assay
Day 0: Compounds or DMSO 60 nL were stamped to the cell plate as the platemap. RS411 cells were centrifuged at 800 rpm for 5 min, suspended with culture medium, and counted with Countess (Invitrogen). The cell density was adjusted to the recommend information. 30 μL of cell solution (1000 cells/well) was added to the assay plate as the platemap and 30 uL of media was added to column 2 and column 23 as the platemap. The plate was spun down briefly. The final concentration of the compounds started at 10 μM (3 fold dilution and 11 doses) and final DMSO concentration was 0.2%. The plate was spun down briefly and incubated at 37° C., 5% CO2 for 1-4 days.
30 μL CellTiter Glo reagent was added to each well and the plate was centrifuged at 1000 rpm for 30 sec. The plate was shaken for 1 min and centrifuged at 1000 rpm for 30 sec. The plate was incubated at RT for 10 min to stabilize the luminescent signal and the luminescence was read by EnVision.
The letter codes for IC50 indicate the concentration of compound required to affect 50% of cells: A (<0.05 μM), B (0.05-0.1 μM), C (0.1-0.5 μM), D (0.5-1.0 μM), and E (>1.0 μM).

| Structure (SMILES) | IC50 (RS4-11, 96 h, duration 4 days) | also measured |
| --- | --- | --- |
| CCOc1cc(C(C)(C)C)ccc1C1=N[C@@H](c2ccc(Cl)cc2)[C@@H](c2ccc(Cl)cc2)N1C(=O)N1CCN(CC#Cc2cccc3c2CN(C2CCC(=O)NC2=O)C3=O)CC1 (stereo partly drawn) [I-4, 3-[4-[3-[4-[(4S,5R)-2-(4-tert-butyl-2-ethoxy-phenyl)-4,5-bis(4-chlorophenyl)-4,5-dihydroimidazole-1-carbonyl]piperazin-1-yl]prop-1-ynyl]-1-oxo-isoindolin-2-yl]piperidine-2,6-dione] | 50 to 100 nM | – |
| CC(C)[C@@H](CS(=O)(=O)C(C)C)N1C(=O)[C@@](C)(CC(=O)Nc2ccc(C(=O)NCCCOCCCN)cc2)C[C@H](c2cccc(Cl)c2)[C@H]1c1ccc(Cl)cc1 [I-5, N-[3-(3-aminopropoxy)propyl]-4-[[2-[(3R,5R,6S)-5-(3-chlorophenyl)-6-(4-chlorophenyl)-1-[(1S)-1-(isopropylsulfonylmethyl)-2-methyl-propyl]-3-methyl-2-oxo-3-piperidyl]acetyl]amino]benzamide] | > 1000 nM | – |
| CC(C)[C@@H](CS(=O)(=O)C(C)C)N1C(=O)[C@@](C)(CC(=O)Nc2ccc(C(=O)NCCOCCOCCOCCNc3cccc4c3C(=O)N(C3CCC(=O)NC3=O)C4=O)cc2)C[C@H](c2cccc(Cl)c2)[C@H]1c1ccc(Cl)cc1 (stereo partly drawn) [I-6, 4-[[2-[(3R,5R,6S)-5-(3-chlorophenyl)-6-(4-chlorophenyl)-1-[(1S)-1-(isopropylsulfonylmethyl)-2-methyl-propyl]-3-methyl-2-oxo-3-piperidyl]acetyl]amino]-N-[2-[2-[2-[2-[[2-(2,6-dioxo-3-piperidyl)-1,3-dioxo-isoindolin-4-yl]amino]ethoxy]ethoxy]ethoxy]ethyl]benzamide] | 100 to 500 nM | – |
| COc1cc(C(=O)NCCCOCCCN)ccc1NC(=O)[C@@H]1N[C@@H](CC(C)(C)C)[C@](C#N)(c2ccc(Cl)cc2F)[C@H]1c1cccc(Cl)c1F [I-7] | > 1000 nM | – |
| CC(C)[C@@H](CS(=O)(=O)C(C)C)N1C(=O)[C@@](C)(CC(=O)Nc2ccc(C(=O)NCCCCCCCNC(=O)c3ccc(NC(=O)C[C@@]4(C)C[C@H](c5cccc(Cl)c5)[C@@H](c5ccc(Cl)cc5)N([C@H](CS(=O)(=O)C(C)C)C(C)C)C4=O)cc3)cc2)C[C@H](c2cccc(Cl)c2)[C@H]1c1ccc(Cl)cc1 [I-8, 4-[2-[(3R,5R,6S)-5-(3-chlorophenyl)-6-(4-chlorophenyl)-3-methyl-1-[(2S)-3-methyl-1-(propane-2-sulfonyl)butan-2-yl]-2-oxopiperidin-3-yl]acetamido]-N-[7-[(4-[2-[(3R,5R,6S)-5-(3-chlorophenyl)-6-(4-chlorophenyl)-3-methyl-1-[(2S)-3-methyl-1-(propane-2-sulfonyl)butan-2-yl]-2-oxopiperidin-3-yl]acetamido]phenyl)formamido]heptyl]benzamide] | > 1000 nM | – |
| Cn1c(=O)n(C2CCC(=O)NC2=O)c2ccc(CCCCCNC(=O)c3ccc(NC(=O)[C@@H]4NC5(CCCCC5)[C@@]5(C(=O)Nc6cc(Cl)ccc65)[C@H]4c4cccc(Cl)c4F)cc3)cc21 (some centres unmarked) [I-9] | < 50 nM | – |
| Cc1ncsc1-c1ccc(CNC(=O)[C@@H]2C[C@@H](O)CN2C(=O)[C@@H](NC(=O)CCCCCCCNC(=O)C[C@@]2(C)C[C@H](c3cccc(Cl)c3)[C@@H](c3ccc(Cl)cc3)N([C@H](CS(=O)(=O)C(C)C)C(C)C)C2=O)C(C)(C)C)cc1 [I-10] | 100 to 500 nM | – |
| Cc1ncsc1-c1ccc(CNC(=O)[C@@H]2C[C@@H](O)CN2C(=O)[C@@H](NC(=O)CCCNC(=O)C[C@@]2(C)C[C@H](c3cccc(Cl)c3)[C@@H](c3ccc(Cl)cc3)N([C@H](CS(=O)(=O)C(C)C)C(C)C)C2=O)C(C)(C)C)cc1 [I-11] | > 1000 nM | – |
| Cc1ncsc1-c1ccc(CNC(=O)[C@@H]2C[C@@H](O)CN2C(=O)[C@@H](NC(=O)CCCCCCCNC(=O)c2ccc(NC(=O)[C@@H]3NC4(CCCCC4)[C@@]4(C(=O)Nc5cc(Cl)ccc54)[C@H]3c3cccc(Cl)c3F)cc2)C(C)(C)C)cc1 [I-12] | 50 to 100 nM | – |
| Cc1ncsc1-c1ccc(CNC(=O)[C@@H]2C[C@@H](O)CN2C(=O)[C@@H](NC(=O)CCCNC(=O)c2ccc(NC(=O)[C@@H]3NC4(CCCCC4)[C@@]4(C(=O)Nc5cc(Cl)ccc54)[C@H]3c3cccc(Cl)c3F)cc2)C(C)(C)C)cc1 [I-13] | 500 to 1000 nM | – |
| CC(C)[C@@H](CS(=O)(=O)C(C)C)N1C(=O)[C@@](C)(CC(=O)Nc2ccc(C(=O)NCCCCCc3ccc4c(c3)n(C)c(=O)n4C3CCC(=O)NC3=O)cc2)C[C@H](c2cccc(Cl)c2)[C@H]1c1ccc(Cl)cc1 (some centres unmarked) [I-14] | < 50 nM | – |
| COc1cc(C(=O)NCCCCCc2ccc3c(c2)n(C)c(=O)n3C2CCC(=O)NC2=O)ccc1NC(=O)[C@@H]1N[C@@H](CC(C)(C)C)[C@](C#N)(c2ccc(Cl)cc2F)[C@H]1c1cccc(Cl)c1F (some centres unmarked) [I-16] | < 50 nM | – |
| COc1cc(C(=O)NCCCC#Cc2ccc3c(c2)n(C)c(=O)n3C2CCC(=O)NC2=O)ccc1NC(=O)[C@@H]1N[C@@H](CC(C)(C)C)[C@](C#N)(c2ccc(Cl)cc2F)[C@H]1c1cccc(Cl)c1F (some centres unmarked) [I-17] | < 50 nM | – |
| COc1cc(C(=O)NCCCCCCCC(=O)N[C@H](C(=O)N2C[C@H](O)C[C@H]2C(=O)NCc2ccc(-c3scnc3C)cc2)C(C)(C)C)ccc1NC(=O)[C@@H]1N[C@@H](CC(C)(C)C)[C@](C#N)(c2ccc(Cl)cc2F)[C@H]1c1cccc(Cl)c1F [I-19] | < 50 nM | – |
| COc1cc(C(=O)NCCCC(=O)N[C@H](C(=O)N2C[C@H](O)C[C@H]2C(=O)NCc2ccc(-c3scnc3C)cc2)C(C)(C)C)ccc1NC(=O)[C@@H]1N[C@@H](CC(C)(C)C)[C@](C#N)(c2ccc(Cl)cc2F)[C@H]1c1cccc(Cl)c1F [I-20] | 100 to 500 nM | – |
| CC(C)[C@@H](CS(=O)(=O)C(C)C)N1C(=O)[C@@](C)(CC(=O)NCCCCCCCCc2ccc3c(c2)n(C)c(=O)n3C2CCC(=O)NC2=O)C[C@H](c2cccc(Cl)c2)[C@H]1c1ccc(Cl)cc1 (some centres unmarked) [I-21] | 50 to 100 nM | – |
| CC(C)[C@@H](CS(=O)(=O)C(C)C)N1C(=O)[C@@](C)(CC(=O)NCCCCCCCCCCCNC(=O)C[C@@]2(C)C[C@H](c3cccc(Cl)c3)[C@@H](c3ccc(Cl)cc3)N([C@H](CS(=O)(=O)C(C)C)C(C)C)C2=O)C[C@H](c2cccc(Cl)c2)[C@H]1c1ccc(Cl)cc1 [I-23] | > 1000 nM | – |
| CC(C)[C@@H](CS(=O)(=O)C(C)C)N1C(=O)[C@@](C)(CC(=O)NCCCCCCC#Cc2cccc3c2CN(C2CCC(=O)NC2=O)C3=O)C[C@H](c2cccc(Cl)c2)[C@H]1c1ccc(Cl)cc1 (some centres unmarked) [I-26] | 50 to 100 nM | – |
| CC(C)[C@@H](CS(=O)(=O)C(C)C)N1C(=O)[C@@](C)(CC(=O)Nc2ccc(C(=O)NCCCC#Cc3cccc4c3CN(C3CCC(=O)NC3=O)C4=O)cc2)C[C@H](c2cccc(Cl)c2)[C@H]1c1ccc(Cl)cc1 (some centres unmarked) [I-27] | – | IC50 (RS4-11, 72 h, duration 3 days): 100 to 500 nM |
| COc1cc(C(=O)NCCCCCc2cccc3c2n(C)c(=O)n3C2CCC(=O)NC2=O)ccc1NC(=O)[C@@H]1N[C@@H](CC(C)(C)C)[C@](C#N)(c2ccc(Cl)cc2F)[C@H]1c1cccc(Cl)c1F (some centres unmarked) [I-28] | – | IC50 (RS4-11, 72 h, duration 3 days): < 50 nM |
| O=C1CCC(N2Cc3c(C#CCCCNC(=O)c4ccc(NC(=O)[C@@H]5NC6(CCCCC6)[C@@]6(C(=O)Nc7cc(Cl)ccc76)[C@H]5c5cccc(Cl)c5F)cc4)cccc3C2=O)C(=O)N1 (some centres unmarked) [I-29] | < 50 nM | – |
| COc1cc(C(=O)NCCCC#Cc2cccc3c2n(C)c(=O)n3C2CCC(=O)NC2=O)ccc1NC(=O)[C@@H]1N[C@@H](CC(C)(C)C)[C@](C#N)(c2ccc(Cl)cc2F)[C@H]1c1cccc(Cl)c1F (some centres unmarked) [I-30] | < 50 nM | – |
| COc1cc(C(=O)NCCCC#Cc2cccc3c2CN(C2CCC(=O)NC2=O)C3=O)ccc1NC(=O)[C@@H]1N[C@@H](CC(C)(C)C)[C@](C#N)(c2ccc(Cl)cc2F)[C@H]1c1cccc(Cl)c1F (some centres unmarked) [I-31] | < 50 nM | – |
| COc1cc(C(=O)NCCCCCCCCNC(=O)c2ccc(NC(=O)[C@@H]3N[C@@H](CC(C)(C)C)[C@](C#N)(c4ccc(Cl)cc4F)[C@H]3c3cccc(Cl)c3F)c(OC)c2)ccc1NC(=O)[C@@H]1N[C@@H](CC(C)(C)C)[C@](C#N)(c2ccc(Cl)cc2F)[C@H]1c1cccc(Cl)c1F [I-32] | 100 to 500 nM | – |
| COc1cc(C(=O)NCCOCCOCCNC(=O)c2ccc(NC(=O)[C@@H]3N[C@@H](CC(C)(C)C)[C@](C#N)(c4ccc(Cl)cc4F)[C@H]3c3cccc(Cl)c3F)c(OC)c2)ccc1NC(=O)[C@@H]1N[C@@H](CC(C)(C)C)[C@](C#N)(c2ccc(Cl)cc2F)[C@H]1c1cccc(Cl)c1F [I-33] | > 1000 nM | – |
| CCN1[C@@H](C(=O)NC23CCC(C(=O)NCCCCCc4ccc5c(c4)n(C)c(=O)n5C4CCC(=O)NC4=O)(CC2)CC3)[C@H](c2cccc(Cl)c2F)[C@]2(C(=O)Nc3cc(Cl)ccc32)C12CCCCC2 (some centres unmarked) [I-42] | – | IC50 (RS4-11, 24 h, duration 1 day): < 50 nM |
| Cn1c(=O)n(C2CCC(=O)NC2=O)c2cccc(C#CCOC3CCN(C(=O)c4ccc(NC(=O)[C@@H]5NC6(CCCCC6)[C@@]6(C(=O)Nc7cc(Cl)ccc76)[C@H]5c5cccc(Cl)c5F)cc4)CC3)c21 (stereo partly drawn) [I-43, (3′R,4'S,5′R)-6″-chloro-4′-(3-chloro-2-fluorophenyl)-N-(4-(4-((3-(1-(2,6-dioxopiperidin-3-yl)-3-methyl-2-oxo-2,3-dihydro-1H-benzo[d]imidazol-4-yl)prop-2-yn-1-yl)oxy)piperidine-1-carbonyl)phenyl)-2″-oxodispiro[cyclohexane-1,2′-pyrrolidine-3′,3″-indoline]-5′-carboxamide] | – | IC50 (RS4-11, 24 h, duration 1 day): < 50 nM |
| Cn1c(=O)n(C2CCC(=O)NC2=O)c2cccc(OC3CC4(CCN(C(=O)c5ccc(NC(=O)[C@@H]6NC7(CCCCC7)[C@@]7(C(=O)Nc8cc(Cl)ccc87)[C@H]6c6cccc(Cl)c6F)cc5)CC4)C3)c21 (some centres unmarked) [I-44] | – | IC50 (RS4-11, 24 h, duration 1 day): < 50 nM |
| CN(C(=O)c1ccc(NC(=O)[C@@H]2NC3(CCCCC3)[C@@]3(C(=O)Nc4cc(Cl)ccc43)[C@H]2c2cccc(Cl)c2F)cc1)C1CCC2(CC1)CC(Cc1cccc3c1n(C)c(=O)n3C1CCC(=O)NC1=O)C2 (some centres unmarked) [I-45] | – | IC50 (RS4-11, 24 h, duration 1 day): 100 to 500 nM |
